# Experimental data from patent US20090233913A1, “OPTICAL ISOMERS OF DIHYDRO-2,3-BENZODIAZEPINES AND THEIR STEREOSELECTIVE SYNTHESIS” (priority 2005, published 2009).
# Assays:
# AMPA receptor = assay: Spreading depression (SD) test in the chicken retina, in vitro; format: cell-based; settings: antagonism of SD latency generated by 5 μM S-AMPA, isolated chicken retina, 30-minute incubation, room temperature; average ± deviation of the average
# Method: The test was carried out according to method of Sheardown (1993).
# Isolated eye-cups of 5-7 days old chickens (Shaver red-brow) were used. The sexes of the chickens were unidentified. Eyes of the animals were enucleated in narcosis caused by etherization, then the back sides of the eyes were cut and put in nutrient solution.
# The composition of the medium is 100 mM NaCl, 3 mM KCl, 1 mM MgSO4, 1 mM CaCl2, 30 mM NaHCO3, 1 mM NaH2PO4 10 mM D-glukose, pH=7.3.
# The spreading depression (SD) latency generated by 5 μM S-AMPA is determined at room temperature followed by a 90-minute stabilisation period. This value was considered as control value. Then the latency caused by AMPA was measured following a 30-minute incubation period in the presence of the test compound, then followed by further 60 minutes washing the recursion of the latency time to the control value was checked.
# The elongation of the control latency with 30 sec corresponds to 100% antagonism. • Literature: Sheardown, M. J.: The triggering of spreading depression in the chicken retina: a pharmacological study. Brain Research 1993, 607: 189-194.
# female Wistar rats = assay: Toxicity test in rats: histological atrophy of thymus and bone-marrow after seven-day p.o. treatment; format: in vivo, rat; settings: for thymus cortex atrophy (scores): female Wistar rats, 30 mg/kg p.o. once daily for seven days, score 0 (no change) to 4 (severe), average ± deviation of the average; for bone-marrow atrophy (scores): female, Wistar, po, 30 mg/kg, 7 days; for bone-marrow atrophy (scores) / effect on the hystological pictures of the thymus and bone-marrow (in words): rat, in vivo
# Method: The examination was carried out using female Wistar rats. One day before the treatment the animals were assigned to randomised groups based on their weight (10 animals/group). Each active ingredient was suspended in a solution of 0.4% hydroxypropylmethylcellulose (Methocell F4 M, Dow Chemical Company, USA) and administered once daily for seven days by gastric-canule. The daily doses were 30 mg/kg, the animals of the control group were treated with the solvent. At the end of the experiments the animals were sacrificed by incising of the arteries of thigh in narcosis caused by ether.
# After the thymus-ectomy thymi were fixed in a solution of formaline buffered with phosphate, then embedded in paraffin, pigmented with hemalaun-eosin.
# Bone-marrow film preparations were made from the femur of the animals and pigmented according to Grimsa method (Sheenan D. C.-Hrapchak B. B.: Theory and practice of histotechnology (2nd ed.) Mosby Company, St. Louis, USA 1980).
# The histological athrophy was scored as follows: 0—there is no change, 1—change appears, 2—slight change, 3—middle severe change, marked change, 4—severe, obvious, wide change. The rating was accomplished blind without any information about the treatment.
# Groups were compared by KRUSKAL WALLIS ANOVA test (Ranks and Median). In case of significant deviation (p<0.05) WALD-WOLFOWITZ test was used for comparison.
# male Wistar rats = assay: Measurement of plasma corticosterone concentration in the rat (radio-immunoassay); format: in vivo; settings: treatment per os, 15 mg/kg
# Method: Examinations were carried out by using male wistar rats weighing 250-300 g. The animals were kept in an air-conditioned room, 12 hours artificial daylight was followed by 12 hours darkness. For four days prior to the experiments the animals got 0.5 ml water daily by a gastric-canule. The weight of the animals was measured at the evening before the experiments, then the animals were placed in separate cages.
# Experiments were accomplished in the morning between 9 and 12 hours.
# Before the treatment the animals were randomized to groups (7 animals/group)
# The tested compounds were administered in a 15 mg/body weight kg dose, in 5 ml/kg solvent volume, using gastric-canule. The control animals were treated with solvent. The solvent composition contained 0.2 ml of 2.5 M HCl and 19.8 ml of distilled water.
# After one hour of the treatment the animals were decapitated and about 2 ml of blood were collected in an ice-cold test tube containing 100 μl of 2% (WN) K-EDTA.
# For the determination of corticosterone concentration, a corticosterone-3-CMO-BSA anti-body prepared in rabbit was used in a dilution of 1:40000. The antibody cross-reaction with desoxycorticosteron was 1.5%; with progesterone it was 2.3%. […]
# The corticosterone concentration was measured from 10 μl plasma without extraction. […] The radioactivity was measured with LKB Clinigamma apparatus. […]
Compound,EC50 (AMPA receptor),thymus cortex atrophy (scores) (female Wistar rats),bone-marrow atrophy (scores) (female Wistar rats),effect on the hystological pictures of the thymus and bone-marrow (in words) (female Wistar rats),effect on the plasma corticosterone concentration (in words) (male Wistar rats)
"CC(=O)N1N=C(c2ccc(N)c(C)c2)c2cc3c(cc2C[C@H]1C)OCO3 [Example 4, (R)-(−)-7-acetyl-5-(4-amino-3-methylphenyl)-8-methyl-8,9-dihydro-7H-1,3-dioxolo[4,5-h][2,3] benzodiazepine]",1800 ± 100 nM,0.30 ± 0.21 scores,0.40 ± 0.27 scores,only in a minimal degree,–
"CC(=O)N1N=C(c2ccc(N)c(C)c2)c2cc3c(cc2C[C@@H]1C)OCO3 [Example 6, (S)-(+)-7-Acetyl-5-(4-amino-3-methylphenyl)-8-methyl-8,9-dihydro-7H-1,3-dioxolo[4,5-h][2,3] benzodiazepine]",–,2.9 ± 0.43 scores,2.1 ± 0.31 scores,caused significant hystological atrophy in the thymus and the bone-marrow,–
"CC(=O)N1N=C(c2ccc(N)c(C)c2)c2cc(Cl)ccc2C[C@H]1C [Example 15, (R)-(−)-3-acetyl-1-(4-amino-3-methylphenyl)-8-chloro-4-methyl-4,5-dihydro-3H-2,3-benzodiazepine]",3900 ± 200 nM,–,–,–,did not affect the plasma corticosterone concentration
"CC(=O)N1N=C(c2ccc(N)c(C)c2)c2cc(Cl)ccc2C[C@@H]1C [Example 16, (S)-(+)-3-acetyl-1-(4-amino-3-methylphenyl)-8-chloro-4-methyl-4,5-dihydro-3H-2,3-benzodiazepine]",–,–,–,–,elevated the plasma corticosterone concentration
